From patent US9872851B2, “Methods of treating portal hypertension” (The Charlotte-Mecklenburg Hospital Authority, priority 2012, dated 2018)

Legend:
primary rat HSCs [1] = experiment: qRT-PCR gene expression in culture-activated primary rat HSCs; assay type: cell-based
Description: (§1) A series of experiments were conducted to determine the functional role of Rev-erbα in HSC transdifferentiation. In these experiments, culture-activated primary rat HSCs and human LX-2 cells were used. To determine the effect of Rev-erbα on HSC transdifferentiation and contraction, cells were treated with a specific synthetic modulator, SR6452 (10 μM). mRNA and protein expression were determined by qRT-PCR and Western blot, respectively. Changes in cellular morphology, Rev-erbα expression/localization and αSMA expression were observed by confocal microscopy. Additionally, cell contractility was assessed.
(§2) Primary rat HSCs were isolated by pronase/collagenase perfusion digestion followed by density gradient centrifugation with Optiprep. Media was replaced every other day to replenish Rev-erb modulator SR6452, which was present at a 10 μM concentration. Cells were treated with MDIR mixture (IBMX, dexamethasone, insulin, rosiglitazone), TGFβ, or DMSO (vehicle). Some experiments were performed with the human HSC cell line, LX-2.
mRNA expression was normalized to 18S rRNA.
(§3) FIGS. 3A-B illustrates that modulation of Rev-erbα activity can regulate adipogenesis. Primary HSCs were culture-activated for 5 days (A) or 15 days (B). Cells were treated with vehicle (DMSO, open bar), or the Rev-erb modulator SR6452 (10 mM, purple bar) for the days indicated. The medium was changed every 48 hrs. FIG. 3A provides a chart summarizing the amount of PPARγ, SREBP1, and Lep mRNA on day 5.
FIGS. 4A-B illustrate that the Rev-erb modulator SR6452 can suppress/decrease ECM gene expression. Primary rat HSCs were cultured from quiescence (day Q) to day 5 (FIG. 4A) or from day 9 to day 12 (FIG. 4B) and treated with Rev-erb modulator SR6452. qRT-PCR was performed to determine ECM gene expression. DMSO was used as the vehicle control, while SR6452 was used as the Rev-erb modulator.
(§4) FIGS. 5A-D illustrate that Rev-erb modulator SR6452 can regulate myofibroblast marker expression and HSC contraction. Primary rat HSCs were cultured from quiescence (day Q) to day 5 (FIG. 5A) or from day 9 to day 12 (FIG. 5B) and treated with Rev-erb modulator SR6452. qRT-PCR was performed for myofibroblast gene expression. Samples were normalized with 18S rRNA. […] HSCs (day 5) were embedded in a collagen gel and treated as indicated for 48 hrs. Gels were then released from plastic surface and contraction monitored after 72 hrs. Materials used were DMSO (vehicle control), SR6452, Rev-erb modulator; and BDM (2,3-Butanedione monoxime), myosin inhibitor.

primary HSCs [2] = experiment: Oil Red O staining / adipogenesis of HSCs; assay type: cell-based, rat
Description: FIGS. 3A-B illustrate how modulation of Rev-erbα activity can regulate adipogenesis. Primary HSCs were culture-activated for 5 days (A) or 15 days (B). Cells were treated with vehicle, DMSO (open bar), or Rev-erb agonist SR6452 ([…], solid bar). FIG. 3A provides a graph summarizing the amount of PPARγ, SREBP1, and Lep mRNA detected after 5 days of culture.
as §2, §3

primary HSCs [3] = experiment: Immunocytochemistry (αSMA, DAPI) and cellular morphology by confocal microscopy; assay type: cell-based, rat; conditions: HSCs (day 9) treated 72 hrs
Description: as §1
Prior to transfection, culture-activated HSCs (for varying days of activation) were seeded onto glass coverslips. Cells were fixed with 4% paraformaldehyde and stained with anti-αSMA antibody, a marker of HSC activation. Cells were imaged using a Zeiss confocal microscope. The fluorescence indicates Rev-erbα or αSMA expression.
FIGS. 5A-D illustrate that Rev-erb modulator SR6452 can regulate myofibroblast marker expression and HSC contraction. Primary rat HSCs were cultured from quiescence (day Q) to day 5 (FIG. 5A) or from day 9 to day 12 (FIG. 5B) and treated with Rev-erb modulator SR6452. qRT-PCR was performed for myofibroblast gene expression. Samples were normalized with 18S rRNA. […] Gels were then released from plastic surface and contraction monitored after 72 hrs. […]

primary rat HSCs [4] = experiment: Cell contraction assay (collagen lattice); assay type: cell-based; conditions: collagen gel, SR6452
Description: Primary rat HSCs (day 9, 2-5×10^6 cells/ml) were embedded in a collagen lattice per manufacturer's instructions. Cells were treated with synthetic Rev-erbα ligand SR6452. Collagen gel size change was imaged using a BioSpectrum Imaging System.
as §4

cirrhotic rats = experiment: Hemodynamic measurements in bile duct-ligated (BDL) rats; assay type: in vivo, rat; conditions: 10 μM/kg femoral vein, one hour
Description: Studies were performed to determine the in vivo efficacy of using SR6452 as a treatment for portal hypertension. Rats underwent bile duct-ligation (˜5 weeks, until ascites developed) to induce fibrosis and thus portal hypertension. Initial hemodynamic measurements were taken prior to addition of the agonist. SR6452 (10 μM/kg body weight) was administered via the femoral vein and measurements taken again one hour after administration. Experiments were performed 5 weeks after male Sprague-Dawley rats underwent bile duct-ligation (BDL), when cirrhosis was fully established and ascites present. SR6452 (10 μM/kg body weight) was administered via the femoral vein and hemodynamic measurements taken one hour after administration. Hemodynamic studies were performed as previously described (J Hepatol 2012 57:1220-1227). Briefly, a laparotomy was performed under anesthesia. A PE-50 catheter was introduced into a small ileocolic vein and advanced to the portal vein for measurement of portal pressure. The left femoral artery and vein were cannulated with PE-50 catheters for measurement of mean arterial pressure, central venous pressure and blood withdrawal. Via the right carotid artery, another PE-50 catheter was advanced into the left ventricle under pulse curve control, for microsphere application. After insertion of all catheters, rats were allowed to stabilize hemodynamically for 30 min. Cardiac output and organ perfusions were measured using the colored microsphere method as described (J Hepatol 2012 57:1220-1227). Briefly, 300,000 systemic (yellow) microspheres (15 μm diameter) were injected in the left ventricle. The mesenteric portal-systemic shunt volume was estimated after injection of 150,000 blue microspheres in an ileocolic vein.

Rev-erbα = experiment: Western blot of Rev-erbα in HSCs treated with pro- and anti-fibrogenic factors; assay type: cell-based, rat
Description: FIGS. 2A-B illustrate the regulation of Rev-erbα expression by pro- and anti-fibrogenic factors. […] Cells were harvested for protein and Western blots performed to detect Rev-erbα.
as §2
FIG. 2B show results from primary HSCs that were treated with pro-fibrogenic factor TGFβ (5 ng/ml) or myosin inhibitors blebbistatin (Bleb) or BDM (2,3-Butanedione monoxime) for 48 hrs. Cells were harvested for protein and Western blots performed to detect Rev-erbα.

[5] = SR6452 10 μM, day Q to day 5 or day 9 to day 12

CC(C)(C)OC(=O)CN(Cc1ccc(Cl)cc1)Cc1ccc([N+](=O)[O-])s1 [SR6452]
effects on major regulatory and structural genes controlling myofibroblast contraction (primary rat HSCs [1]; [5]): repressive effects
expression of key extracellular matrix components, including Type I collagen, fibronectin, and tenascin C (primary rat HSCs [1]; [5]): significantly down-regulated
expression of major adipogenic factors, notably PPARγ and SREBP1 (primary rat HSCs [1]; SR6452 10 μM, mRNA, day 5): up-regulated
effect on HSC activation (primary rat HSCs [1]; overall conclusion of the in vitro data): suppressive effect
lipid content in activated HSCs (primary HSCs [2]; SR6452 10 μM, primary HSCs): increased
HSC adipogenesis (primary HSCs [2]; exposure of quiescent HSCs): promoted
morphology of treated primary HSCs (primary HSCs [3]): slightly rounded/folded cytoplasm with disoriented actin fibers
HSC contraction (primary rat HSCs [4]): impeded
portal pressure (PP) after SR6452 (cirrhotic rats; mean, p=0.017): 19.1 mmHg
hepatic-portal vascular resistance after SR6452 (cirrhotic rats; mean, p=0.043): 8.8 mmHg/min/100 g/ml
splanchnic vascular resistance after SR6452 (cirrhotic rats; mean, p=0.048): 27.5 mmHg/min/100 g/ml
reduction in hepatic-portal vascular resistance (cirrhotic rats; vs baseline): 36%
reduction in splanchnic vascular resistance (cirrhotic rats; vs baseline): 13.5%

TGFβ
cytoplasmic Rev-erbα (Rev-erbα; TGFβ 5 ng/ml, 48 hrs): stabilized
Rev-erbα protein expression (Rev-erbα; Western blot): increased
